# System: MDA-MB-231 multicell spheroids, viability
# Test: Anticancer human tumor MDA-MB-231 cell line growth inhibition [PI3K];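 further: spheroids exposed to agents for seven days before reading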;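 on viability, T/C: percent of vehicle control luminescence with DMSO treated spheroids as 100%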
# Conditions: for IC50: curve of first compound; for viability, T/C: stronger effect = lower value
# Procedure, shortened: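 Three cell types, namely tumor cells, endothelial cells and mesenchymal stem cells, formed each spheroid. Combinations with four PI3K inhibitors were screened at clinically achievable concentrations decreasing by half-log, and spheroid viability was recorded.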
# [1] = second compound 0.0316 µM, first compound 0.0316 µM
# [2] = second compound 0.0316 µM, first compound 0.1 µM
# [3] = second compound 0.1 µM, first compound 0.0316 µM
# [4] = second compound 0.1 µM, first compound 0.1 µM
# [5] = second compound 0.316 µM, first compound 0.0316 µM
# [6] = second compound 0.316 µM, first compound 0.1 µM
# [7] = second compound 1 µM, first compound 0.0316 µM
# [8] = second compound 1 µM, first compound 0.1 µM
# [9] = second compound 3.16 µM, first compound 0.0316 µM
# [10] = second compound 3.16 µM, first compound 0.1 µM
# [11] = second compound 10 µM, first compound 0.0316 µM
# [12] = second compound 10 µM, first compound 0.1 µM
smiles,measurement,setting,value
CC(=O)c1c(C)c2cnc(Nc3ccc(N4CCNCC4)cn3)nc2n(C2CCCC2)c1=O + Cc1nc(NC(=O)N2CCCC2C(N)=O)sc1-c1ccnc(C(C)(C)C(F)(F)F)c1,IC50,second compound 0.0316 µM,69.7 nM
same,IC50,second compound 0.1 µM,52 nM
same,IC50,second compound 0.316 µM,27.3 nM
same,IC50,second compound 1 µM,22 nM
same,IC50,second compound 3.16 µM,19 nM
same,IC50,second compound 10 µM,15 nM
same,"viability, T/C","second compound 0.0316 µM, first compound 0.000316 µM",98.2%
same,"viability, T/C","second compound 0.0316 µM, first compound 0.001 µM",87.3%
same,"viability, T/C","second compound 0.0316 µM, first compound 0.00316 µM",92.4%
same,"viability, T/C","second compound 0.0316 µM, first compound 0.01 µM",82.7%
same,"viability, T/C",[1],66.3%
same,"viability, T/C",[2],42.5%
same,"viability, T/C","second compound 0.1 µM, first compound 0.000316 µM",79.2%
same,"viability, T/C","second compound 0.1 µM, first compound 0.001 µM",85.5%
same,"viability, T/C","second compound 0.1 µM, first compound 0.00316 µM",81.4%
same,"viability, T/C","second compound 0.1 µM, first compound 0.01 µM",73.4%
same,"viability, T/C",[3],59.7%
same,"viability, T/C",[4],37.8%
same,"viability, T/C","second compound 0.316 µM, first compound 0.000316 µM",73.8%
same,"viability, T/C","second compound 0.316 µM, first compound 0.001 µM",72.8%
same,"viability, T/C","second compound 0.316 µM, first compound 0.00316 µM",71.8%
same,"viability, T/C","second compound 0.316 µM, first compound 0.01 µM",60.9%
same,"viability, T/C",[5],48.8%
same,"viability, T/C",[6],34%
same,"viability, T/C","second compound 1 µM, first compound 0.000316 µM",70.5%
same,"viability, T/C","second compound 1 µM, first compound 0.001 µM",64.9%
same,"viability, T/C","second compound 1 µM, first compound 0.00316 µM",63%
same,"viability, T/C","second compound 1 µM, first compound 0.01 µM",59%
same,"viability, T/C",[7],46%
same,"viability, T/C",[8],29.6%
same,"viability, T/C","second compound 3.16 µM, first compound 0.000316 µM",67.2%
same,"viability, T/C","second compound 3.16 µM, first compound 0.001 µM",66.6%
same,"viability, T/C","second compound 3.16 µM, first compound 0.00316 µM",61.1%
same,"viability, T/C","second compound 3.16 µM, first compound 0.01 µM",56.3%
same,"viability, T/C",[9],44.8%
same,"viability, T/C",[10],33.2%
same,"viability, T/C","second compound 10 µM, first compound 0.000316 µM",64%
same,"viability, T/C","second compound 10 µM, first compound 0.001 µM",60.9%
same,"viability, T/C","second compound 10 µM, first compound 0.00316 µM",58.4%
same,"viability, T/C","second compound 10 µM, first compound 0.01 µM",52.4%
same,"viability, T/C",[11],45.1%
same,"viability, T/C",[12],31%
CNC(=O)c1ccc(N2C(=S)N(c3ccc(C#N)c(C(F)(F)F)c3)C(=O)C2(C)C)cc1F + Cc1nc(NC(=O)N2CCCC2C(N)=O)sc1-c1ccnc(C(C)(C)C(F)(F)F)c1,IC50,second compound 0.0316 µM,> 10000 nM
same,IC50,second compound 0.1 µM,> 10000 nM
same,IC50,second compound 0.316 µM,> 10000 nM
same,IC50,second compound 1 µM,> 10000 nM
same,IC50,second compound 3.16 µM,> 10000 nM
same,IC50,second compound 10 µM,> 10000 nM
same,"viability, T/C",[1],100%
same,"viability, T/C",[2],94%
same,"viability, T/C","second compound 0.0316 µM, first compound 0.316 µM",93.3%
same,"viability, T/C","second compound 0.0316 µM, first compound 1 µM",95.7%
same,"viability, T/C","second compound 0.0316 µM, first compound 3.16 µM",93.8%
same,"viability, T/C","second compound 0.0316 µM, first compound 10 µM",77.2%
same,"viability, T/C",[3],86.1%
same,"viability, T/C",[4],88.3%
same,"viability, T/C","second compound 0.1 µM, first compound 0.316 µM",89.9%
same,"viability, T/C","second compound 0.1 µM, first compound 1 µM",85.6%
same,"viability, T/C","second compound 0.1 µM, first compound 3.16 µM",76.5%
same,"viability, T/C","second compound 0.1 µM, first compound 10 µM",57.1%
same,"viability, T/C",[5],74.3%
same,"viability, T/C",[6],77.5%
same,"viability, T/C","second compound 0.316 µM, first compound 0.316 µM",74.3%
same,"viability, T/C","second compound 0.316 µM, first compound 1 µM",76.8%
same,"viability, T/C","second compound 0.316 µM, first compound 3.16 µM",77.2%
same,"viability, T/C","second compound 0.316 µM, first compound 10 µM",57.8%
same,"viability, T/C",[7],71.5%
same,"viability, T/C",[8],69.8%
same,"viability, T/C","second compound 1 µM, first compound 0.316 µM",68.3%
same,"viability, T/C","second compound 1 µM, first compound 1 µM",65.9%
same,"viability, T/C","second compound 1 µM, first compound 3.16 µM",69.5%
same,"viability, T/C","second compound 1 µM, first compound 10 µM",57.6%
same,"viability, T/C",[9],68.4%
same,"viability, T/C",[10],68.8%
same,"viability, T/C","second compound 3.16 µM, first compound 0.316 µM",68.2%
same,"viability, T/C","second compound 3.16 µM, first compound 1 µM",68.7%
same,"viability, T/C","second compound 3.16 µM, first compound 3.16 µM",66.4%
same,"viability, T/C","second compound 3.16 µM, first compound 10 µM",51.4%
same,"viability, T/C",[11],62.1%
same,"viability, T/C",[12],62.5%
same,"viability, T/C","second compound 10 µM, first compound 0.316 µM",63.2%
same,"viability, T/C","second compound 10 µM, first compound 1 µM",66.4%
same,"viability, T/C","second compound 10 µM, first compound 3.16 µM",64.1%
same,"viability, T/C","second compound 10 µM, first compound 10 µM",49.9%
Cn1cnc2c(F)c(Nc3ccc(Br)cc3Cl)c(C(=O)NOCCO)cc21 + Cc1nc(NC(=O)N2CCCC2C(N)=O)sc1-c1ccnc(C(C)(C)C(F)(F)F)c1,IC50,second compound 0.0316 µM,273 nM
same,IC50,second compound 0.1 µM,61.1 nM
same,IC50,second compound 0.316 µM,< 9.49 nM
same,IC50,second compound 1 µM,< 9.49 nM
same,IC50,second compound 3.16 µM,< 9.49 nM
same,IC50,second compound 10 µM,< 9.49 nM
same,"viability, T/C","second compound 0.0316 µM, first compound 0.00949 µM",63.2%
same,"viability, T/C","second compound 0.0316 µM, first compound 0.03 µM",55.5%
same,"viability, T/C","second compound 0.0316 µM, first compound 0.0949 µM",56.7%
same,"viability, T/C","second compound 0.0316 µM, first compound 0.3 µM",47.1%
same,"viability, T/C","second compound 0.0316 µM, first compound 0.949 µM",45.2%
same,"viability, T/C","second compound 0.0316 µM, first compound 3 µM",29.5%
same,"viability, T/C","second compound 0.1 µM, first compound 0.00949 µM",58.1%
same,"viability, T/C","second compound 0.1 µM, first compound 0.03 µM",51.1%
same,"viability, T/C","second compound 0.1 µM, first compound 0.0949 µM",47.8%
same,"viability, T/C","second compound 0.1 µM, first compound 0.3 µM",41.4%
same,"viability, T/C","second compound 0.1 µM, first compound 0.949 µM",40%
same,"viability, T/C","second compound 0.1 µM, first compound 3 µM",26.1%
same,"viability, T/C","second compound 0.316 µM, first compound 0.00949 µM",50.4%
same,"viability, T/C","second compound 0.316 µM, first compound 0.03 µM",43.2%
same,"viability, T/C","second compound 0.316 µM, first compound 0.0949 µM",48.1%
same,"viability, T/C","second compound 0.316 µM, first compound 0.3 µM",40.6%
same,"viability, T/C","second compound 0.316 µM, first compound 0.949 µM",34.3%
same,"viability, T/C","second compound 0.316 µM, first compound 3 µM",22.1%
same,"viability, T/C","second compound 1 µM, first compound 0.00949 µM",44.4%
same,"viability, T/C","second compound 1 µM, first compound 0.03 µM",37.8%
same,"viability, T/C","second compound 1 µM, first compound 0.0949 µM",38.7%
same,"viability, T/C","second compound 1 µM, first compound 0.3 µM",37.4%
same,"viability, T/C","second compound 1 µM, first compound 0.949 µM",33%
same,"viability, T/C","second compound 1 µM, first compound 3 µM",12.6%
same,"viability, T/C","second compound 3.16 µM, first compound 0.00949 µM",48.4%
same,"viability, T/C","second compound 3.16 µM, first compound 0.03 µM",37.1%
same,"viability, T/C","second compound 3.16 µM, first compound 0.0949 µM",36.2%
same,"viability, T/C","second compound 3.16 µM, first compound 0.3 µM",36.1%
same,"viability, T/C","second compound 3.16 µM, first compound 0.949 µM",30.2%
same,"viability, T/C","second compound 3.16 µM, first compound 3 µM",9.65%
same,"viability, T/C","second compound 10 µM, first compound 0.00949 µM",39.2%
same,"viability, T/C","second compound 10 µM, first compound 0.03 µM",32.7%
same,"viability, T/C","second compound 10 µM, first compound 0.0949 µM",31.6%
same,"viability, T/C","second compound 10 µM, first compound 0.3 µM",24.7%
same,"viability, T/C","second compound 10 µM, first compound 0.949 µM",17.9%
same,"viability, T/C","second compound 10 µM, first compound 3 µM",4.43%

# From PubChem BioAssay AID1963958 (Molecular Pharmacology Branch, DTP, NCI, 2024)
